The text below walks through data of patent US20080293583A1, “Methods for diagnosing mood disorders” (Wyeth, priority 2003, published 2008).

This assay deals with Fatty Acid-Binding Protein, Heart (H-FABP). Briefly: 2-DE proteome analysis of rat hippocampus: H-FABP. It counts as in vivo. The conditions noted are these: rat hippocampus cytosolic extract, 10 mg/kg i.p. daily 14 days, vs control; gel spot 89. As for the experimental part:
Animal dosing. Adult male Sprague Dawley rats weighing 230-320 g were housed with ad libitum access to food and water. After 1 week of habituation, rats were administered either an antidepressant or vehicle alone. The following drugs were administered intraperitoneally (i.p.): fluoxetine (10 mg/kg daily), venlafaxine (10 mg/kg daily) or vehicle alone (1 ml/kg normal saline daily) for 14 days (n=3 rats per group).
Sample preparation and cytosolic protein extraction. The animals were euthanized and hippocampi were rapidly dissected from the whole brain. Samples from each treatment group were pooled and stored at −85° C. Cytosolic extracts were prepared using the universal extraction kit from Sigma (prot-two) as follows: soluble cytoplasmic extraction reagent (S2688) was added to the hippocampal tissue (10 ml/250 mg wet weight). […]
Two-dimensional gel electrophoresis. […] Molecular masses were determined by running standard protein markers (Genomic Solutions Inc.), covering the range 10-200 kDa as well as internal verification via landmark proteins within the gel. […]
Protein fixation, silver staining and 2-D gel comparisons. […] Protein spots were outlined (first automatically and then manually) and quantified using the HT analyzer v2.2 software (Genomic Solutions Inc.). The software calculated the relative spot volume of the proteins compared with the total amount of protein in the gel. […]

As for `CNCCC(Oc1ccc(C(F)(F)F)cc1)c1ccccc1` (centres unmarked) [Fluoxetine, fluoxetine], the “Fold change, Fatty Acid-Binding Protein, Heart (H-FABP)” value came out at 1.6 Fold change. With `COc1ccc(C(CN(C)C)C2(O)CCCCC2)cc1` (centres unmarked) [Venlafaxine, venlafaxine], the “Fold change, Fatty Acid-Binding Protein, Heart (H-FABP)” value was 2.1 Fold change.
